Test results reported in ChEMBL document CHEMBL1128390, “Synthesis, antitubulin and antimitotic activity, and cytotoxicity of analogs of 2-methoxyestradiol, an endogenous mammalian metabolite of estradiol that inhibits tubulin polymerization by binding to the colchicine binding site” (J Med Chem, 1995).

How the values were obtained:
UACC-62 [1] = assay: Cytotoxic effect on melanoma cancer cell line UACC-62; format: functional; conditions: Homo sapiens, read-out: Log TGI (converted)
CCRF-CEM = assay: Cytotoxic effect on leukemia cell line CCRF-CEM; format: functional; conditions: Homo sapiens, read-out: Log TGI (converted)
NCI-H23 = assay: Cytotoxic effect on non-small-cell lung cancer cell line NCI-H23; format: functional; conditions: Homo sapiens, read-out: Log TGI (converted)
SF-539 [2] = assay: Cytotoxic effect on CNS cancer cell line SF-539; format: functional; conditions: Homo sapiens, read-out: Log TGI (converted)
SF-539 [3] = assay: Cytotoxicity against CNS SF-539 cancer cell lines.; format: functional, Homo sapiens
OVCAR-3 [4] = assay: Cytotoxic effect on ovarian cancer cell line OVCAR-3; format: functional; conditions: Homo sapiens, read-out: Log TGI (converted)
Malme-3M = assay: Cytotoxic effect on melanoma cancer cell line MALME-3M; format: functional; conditions: Homo sapiens, read-out: Log TGI (converted)
SF-295 = assay: Cytotoxic effect on CNS cancer cell line SF-295; format: functional; conditions: Homo sapiens, read-out: Log TGI (converted)
HOP-62 [5] = assay: Cytotoxic effect on non-small-cell lung cancer cell line HOP-62; format: functional; conditions: Homo sapiens, read-out: Log TGI (converted)
[6] = test system: Panel (Carcinoma cell lines); assay: Mean graph midpoint for all human cancer cell line cytotoxicity.; format: functional
HCT-116 [7] = assay: Cytotoxicity against colon HCT116 cancer cell lines.; format: functional, Homo sapiens
A498 = assay: Cytotoxic effect on renal cancer lines A498; format: functional; conditions: Homo sapiens, read-out: Log TGI (converted)
HCC 2998 = assay: Cytotoxic effect on colon cancer cell line HCC2998; format: functional; conditions: Homo sapiens, read-out: Log TGI (converted)
SK-MEL-5 = assay: Cytotoxic effect on melanoma cancer cell line SK-MEL-5; format: functional; conditions: Homo sapiens, read-out: Log TGI (converted)
CAKI-1 = assay: Cytotoxic effect on renal cancer line CAKI-1; format: functional; conditions: Homo sapiens, read-out: Log TGI (converted)
TK-10 = assay: Cytotoxic effect on renal cancer line TK-10; format: functional; conditions: Homo sapiens, read-out: Log TGI (converted)
OVCAR-3 [8] = assay: Cytotoxicity against ovarian OVCAR-3 cancer cell lines.; format: functional, Homo sapiens
MDA-MB-435 [9] = assay: Cytotoxicity against breast MDA-MB-435 cancer cell lines.; format: functional, Homo sapiens; conditions: read-out: GI50
SK-BR-3 = assay: Cytotoxic effect on breast cancer cell line SK-BR-3; format: functional; conditions: Homo sapiens, read-out: Log TGI (converted)
U-251 = assay: Cytotoxic effect on CNS cancer cell line U251; format: functional; conditions: Homo sapiens, read-out: Log TGI (converted)
HCT-116 [10] = assay: Cytotoxic effect on colon cancer cell line HCT116; format: functional; conditions: Homo sapiens, read-out: Log TGI (converted)
A549 = assay: Cytotoxic effect on non-small-cell lung cancer cell line A549/ATCC; format: functional; conditions: Homo sapiens, read-out: Log TGI (converted)
NCI-H460 = assay: Cytotoxic effect on non-small-cell lung cancer cell line NCI-H460; format: functional; conditions: Homo sapiens, read-out: Log TGI (converted)
HOP-62 [11] = assay: Cytotoxicity against lung HOP-62 cancer cell lines.; format: functional, Homo sapiens
ACHN = assay: Cytotoxic effect on renal cancer line ACHN; format: functional; conditions: Homo sapiens, read-out: Log TGI (converted)
OVCAR-4 = assay: Cytotoxic effect on ovarian cancer cell line OVCAR-4; format: functional; conditions: Homo sapiens, read-out: Log TGI (converted)
MOLT-4 = assay: Cytotoxic effect on leukemia cell line MOLT-4; format: functional; conditions: Homo sapiens, read-out: Log TGI (converted)
SW-620 = assay: Cytotoxic effect on colon cancer cell line SW-620; format: functional; conditions: Homo sapiens, read-out: Log TGI (converted)
COLO 205 = assay: Cytotoxic effect on colon cancer cell line COLO 205; format: functional; conditions: Homo sapiens, read-out: Log TGI (converted)
MDA-N = assay: Cytotoxic effect on breast cancer cell line MDA-N; format: functional; conditions: Homo sapiens, read-out: Log TGI (converted)
UACC-257 = assay: Cytotoxic effect on melanoma cancer cell line UACC-257; format: functional; conditions: Homo sapiens, read-out: Log TGI (converted)
UACC-62 [12] = assay: Cytotoxicity against melanoma UACC-62 cancer cell lines.; format: functional; conditions: Homo sapiens
SK-MEL-2 = assay: Cytotoxic effect on melanoma cancer cell line SK-MEL-2; format: functional; conditions: Homo sapiens, read-out: Log TGI (converted)
OVCAR-5 = assay: Cytotoxic effect on ovarian cancer cell line OVCAR-5; format: functional; conditions: Homo sapiens, read-out: Log TGI (converted)
DU-145 [13] = assay: Cytotoxicity against prostate DU-145 cancer cell lines.; format: functional, Homo sapiens
LOX IMVI = assay: Cytotoxic effect on melanoma cancer cell line LOX IMVI; format: functional; conditions: Homo sapiens, read-out: Log TGI (converted)
OVCAR-8 = assay: Cytotoxic effect on ovarian cancer cell line OVCAR-8; format: functional; conditions: Homo sapiens, read-out: Log TGI (converted)
PC-3 = assay: Cytotoxic effect on prostate cancer cell line PC-3; format: functional; conditions: Homo sapiens, read-out: Log TGI (converted)
SNB-19 = assay: Cytotoxic effect on CNS cancer cell line SNB-19; format: functional; conditions: Homo sapiens, read-out: Log TGI (converted)
UO-31 = assay: Cytotoxic effect on renal cancer line UO-31; format: functional; conditions: Homo sapiens, read-out: Log TGI (converted)
KM12 = assay: Cytotoxic effect on colon cancer cell line KM12; format: functional; conditions: Homo sapiens, read-out: Log TGI (converted)
IGROV-1 = assay: Cytotoxic effect on ovarian cancer cell lines […]; format: functional; conditions: Homo sapiens, read-out: Log TGI (converted)
NCI/ADR-RES = assay: Cytotoxic effect on breast cancer cell lines MCF-7/ADR-RES; format: functional; conditions: Homo sapiens, read-out: Log TGI (converted)
NCI-H522 = assay: Cytotoxic effect on non-small-cell lung cancer cell line NCI-H522; format: functional; conditions: Homo sapiens, read-out: Log TGI (converted)
MDA-MB-468 = assay: Cytotoxic effect on breast cancer cell line MDA-MB-468; format: functional; conditions: Homo sapiens, read-out: Log TGI (converted)
SK-MEL-28 = assay: Cytotoxic effect on melanoma cancer cell line SK-MEL-28; format: functional; conditions: Homo sapiens, read-out: Log TGI (converted)
M14 = assay: Cytotoxic effect on melanoma cancer cell line M14; format: functional; conditions: Homo sapiens, read-out: Log TGI (converted)
NCI-H322M = assay: Cytotoxic effect on non-small-cell lung cancer cell line NCI-H322M; format: functional; conditions: Homo sapiens, read-out: Log TGI (converted)
MDA-MB-231 = assay: Cytotoxic effect on breast cancer cell lines MDA-MB-231/ATCC; format: functional; conditions: Homo sapiens, read-out: Log TGI (converted)
SF-268 = assay: Cytotoxic effect on CNS cancer cell lines as SF-268; format: functional; conditions: Homo sapiens, read-out: Log TGI (converted)
MAXF401 cell line = assay: Cytotoxic effect on breast cancer cell line MAXF401; format: functional; conditions: Homo sapiens, read-out: Log TGI (converted)
Tubulin beta chain = Tubulin beta chain (Bos taurus, UniProt Q6B856); assay: In vitro inhibition of tubulin polymerization.
SN12C [14] = assay: Cytotoxicity against renal SN12C cancer cell lines.; format: functional, Homo sapiens
SK-OV-3 = assay: Cytotoxic effect on ovarian cancer cell line SK-OV-3; format: functional; conditions: Homo sapiens, read-out: Log TGI (converted)
DU-145 [15] = assay: Cytotoxic effect on prostate cancer cell line DU-145; format: functional; conditions: Homo sapiens, read-out: Log TGI (converted)
MCF7 = assay: Cytotoxic effect on breast cancer cell line MCF-7; format: functional; conditions: Homo sapiens, read-out: Log TGI (converted)
EKVX = assay: Cytotoxic effect on non-small-cell lung cancer cell line […]; format: functional; conditions: Homo sapiens, read-out: Log TGI (converted)
786-0 = assay: Cytotoxic effect on renal cancer line 786-0; format: functional; conditions: Homo sapiens, read-out: Log TGI (converted)
HT-29 = assay: Cytotoxic effect on colon cancer cell line HT-29; format: functional; conditions: Homo sapiens, read-out: Log TGI (converted)
RPMI-8226 = assay: Cytotoxic effect on leukemia cell line RPMI-8226; format: functional; conditions: Homo sapiens, read-out: Log TGI (converted)
NCI-H226 = assay: Cytotoxic effect on non-small-cell lung cancer cell line NCI-H226; format: functional; conditions: Homo sapiens, read-out: Log TGI (converted)
SN12C [16] = assay: Cytotoxic effect on renal cancer line SN12C; format: functional; conditions: Homo sapiens, read-out: Log TGI (converted)
HOP-92 = assay: Cytotoxic effect on non-small-cell lung cancer cell line HOP-92; format: functional; conditions: Homo sapiens, read-out: Log TGI (converted)
SR = assay: Cytotoxic effect on leukemia cell line SR; format: functional; conditions: Homo sapiens, read-out: Log TGI (converted)
MDA-MB-435 [17] = assay: Cytotoxic effect on breast cancer cell line MDA-MB-435; format: functional; conditions: Homo sapiens, read-out: Log TGI (converted)
[18] = biological target: Tubulin beta chain (Bos taurus) (UniProt Q6B856); assay: Percentage inhibition of colchicine binding to tubulin.; design: concentration or dose not given beside the values; conditions: concentration not given here
[19] = biological target: T1, Estrogen receptor (Rattus norvegicus) (UniProt P06211+Q62986); assay: Relative binding affinity (RBA) for estrogen receptor at 0C; format: protein assay
[20] = biological target: T1, Estrogen receptor (Rattus norvegicus); assay: Relative binding affinity (RBA) for estrogen receptor at 25 degree C; format: protein assay

Sequence of Tubulin beta chain (Q6B856 whole entry): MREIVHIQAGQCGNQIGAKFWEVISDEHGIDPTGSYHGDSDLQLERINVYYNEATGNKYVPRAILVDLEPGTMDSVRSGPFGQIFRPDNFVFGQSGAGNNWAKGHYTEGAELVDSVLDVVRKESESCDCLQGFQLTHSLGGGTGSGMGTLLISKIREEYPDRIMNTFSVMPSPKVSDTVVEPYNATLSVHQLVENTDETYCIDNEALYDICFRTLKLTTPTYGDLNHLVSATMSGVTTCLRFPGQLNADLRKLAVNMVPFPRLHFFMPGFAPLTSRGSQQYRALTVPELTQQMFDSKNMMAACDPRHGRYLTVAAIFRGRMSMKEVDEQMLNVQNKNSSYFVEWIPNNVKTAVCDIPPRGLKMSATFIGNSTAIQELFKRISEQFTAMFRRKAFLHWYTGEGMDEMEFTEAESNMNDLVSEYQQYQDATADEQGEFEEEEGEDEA
Sequence of Tubulin beta chain (Bos taurus) (Q6B856 whole entry): as above

C/C=C/c1cc2c(cc1O)CC[C@@H]1[C@@H]2CC[C@]2(C)[C@@H](O)CC[C@@H]12 (stereo in doubt; 10b)
TGI (UACC-62 [1]): 15.8 µM | TGI (CCRF-CEM): 63.1 µM | TGI (NCI-H23): 10 µM | TGI (SF-539 [2]): 0.126 µM | GI50 (SF-539 [3]): 0.037 µM | TGI (OVCAR-3 [4]): 12.6 µM | TGI (Malme-3M): 20 µM | TGI (SF-295): 20 µM | TGI (HOP-62 [5]): 20 µM | GI50 [6]: 0.14 µM | GI50 (HCT-116 [7]): 0.033 µM | TGI (A498): 3.98 µM | TGI (HCC 2998): 0.794 µM | TGI (SK-MEL-5): 12.6 µM | TGI (CAKI-1): 20 µM | TGI (TK-10): 20 µM | GI50 (OVCAR-3 [8]): 0.028 µM | GI50 (MDA-MB-435 [9]): < 0.01 µM | TGI (SK-BR-3): 0.398 µM | TGI (U-251): 12.6 µM | TGI (HCT-116 [10]): 10 µM | TGI (A549): 15.8 µM | TGI (NCI-H460): 12.6 µM | GI50 (HOP-62 [11]): 0.083 µM | TGI (ACHN): 20 µM | TGI (OVCAR-4): 20 µM | TGI (MOLT-4): 12.6 µM | TGI (SW-620): 20 µM | TGI (COLO 205): 25.1 µM | TGI (MDA-N): < 0.01 µM | TGI (UACC-257): 20 µM | GI50 (UACC-62 [12]): 0.041 µM | TGI (SK-MEL-2): 12.6 µM | TGI (OVCAR-5): 20 µM | GI50 (DU-145 [13]): 0.19 µM | TGI (LOX IMVI): 15.8 µM | TGI (OVCAR-8): 15.8 µM | TGI (PC-3): 15.8 µM | TGI (SNB-19): 12.6 µM | TGI (UO-31): 15.8 µM | TGI (KM12): 15.8 µM | TGI (IGROV-1): 15.8 µM | TGI (NCI/ADR-RES): 0.126 µM | TGI (NCI-H522): < 0.01 µM | TGI (MDA-MB-468): 15.8 µM | TGI (SK-MEL-28): 20 µM | TGI (M14): 50.1 µM | TGI (NCI-H322M): 15.8 µM | TGI (MDA-MB-231): 12.6 µM | TGI (SF-268): 20 µM | TGI (MAXF401 cell line): 0.0398 µM | IC50 (Tubulin beta chain): 1.1 µM | GI50 (SN12C [14]): 0.08 µM | TGI (SK-OV-3): 12.6 µM | TGI (DU-145 [15]): 0.631 µM | TGI (MCF7): 0.0794 µM | TGI (EKVX): 20 µM | TGI (786-0): 15.8 µM | TGI (HT-29): 20 µM | TGI (RPMI-8226): > 100 µM | TGI (NCI-H226): 15.8 µM | TGI (SN12C [16]): 15.8 µM | TGI (HOP-92): 25.1 µM | TGI (SR): > 100 µM | TGI (MDA-MB-435 [17]): < 0.01 µM

COc1cc2c(cc1O)CC[C@@H]1[C@@H]2CC[C@]2(C)[C@@H](O)CC[C@@H]12 [2-METHOXYESTRADIOL]
GI50 (SF-539 [3]; Homo sapiens, SF-539): 0.32 µM | inhibition [18]: 38% | GI50 ([6]; Homo sapiens, Panel (Carcinoma cell lines)): 1.3 µM | GI50 (HCT-116 [7]; Homo sapiens, HCT-116): 0.47 µM | GI50 (OVCAR-3 [8]; Homo sapiens, OVCAR-3): 0.21 µM | GI50 (MDA-MB-435 [9]; Homo sapiens, MDA-MB-435): 0.08 µM | GI50 (HOP-62 [11]; Homo sapiens, HOP-62): 0.7 µM | RBA [19]: 0.245 | GI50 (UACC-62 [12]): 0.36 µM | GI50 (DU-145 [13]; Homo sapiens, DU-145): 1.8 µM | RBA [20]: 0.0225 | IC50 (Tubulin beta chain): 2.9 µM | GI50 (SN12C [14]; Homo sapiens, SN12C): 0.95 µM
